According to patent US20100168165A1, “METHOD OF TREATING DISEASE INVOLVING MYELIN AND/OR AXONAL LOSS” (The United States of America, as represented by the …, priority 2007, published 2010):
Values joined by “and” are separate entries in the source; they are usually repeats but may differ in a detail not shown here. Equal values may be shown once.

Assays:
[1] = test system: myelin-specific T cells; assay: Spleen recall proliferation to myelin antigen 20 days after immunization; assay type: in vivo; conditions: three animals per group, pooled; FIG. 9
Protocol: Animals on control or Tempol feed are immunized with a myelin antigen, and the spleens are tested 20 days later for recall to antigen. Three animals per group are tested and the results are pooled (FIG. 9).

[2] = test system: passively induced chronic progressive EAE; assay: Passively induced chronic progressive EAE (transfer of PLP139-151-activated encephalitogenic T cells); assay type: in vivo, SJL mice
Protocol: (§1) SJL mice are placed on Tempol-containing food two weeks prior to the initiation of experimental autoimmune encephalomyelitis (EAE) either by active immunization with myelin antigens or the transfer of activated encephalitogenic T cells. Animals receive bacon-flavored control food and Tempol-containing food ad libitum (Bio-Serv, Frenchtown, N.J.). The composition of the control food and Tempol-containing food is identical with exception to the addition of Tempol at a concentration of 10 mg/gram of food (Mitchell et al., Free Radic. Biol. Med., 34: 93-102 (2003)). Bacon flavored food is used to mask the taste of Tempol. All experiments with animals are carried out according to protocols approved by and on file with the National Institute of Neurological Disorders and Stoke (NINDS) Animal Care and Use Committee (ACUC).
(§2) For the EAE induction, all animals are female, 8-10 weeks of age at time of myelin protein immunization. Animals are immunized for active EAE induction with 200 μg of MOG35-55 peptide in 4 mg/ml H37Ra Mycobacterium/IFA with 200 ng pertussis toxin delivered intraperitoneally (IP) on days 0 and 2. For passive EAE induction, SJL animals are immunized with 75 μg of PLP139-151 peptide in 1 mg/ml H37Ra Mycobacterium/IFA (Difco, Detroit, Mich.). Ten days later, axillary and inguinal lymph nodes are removed and placed into culture with 5 μg/ml of PLP139-151 peptide. After 3 days, activated T cells are counted and 2 million blasted T cells are transferred IP to each SJL recipient mouse.
Mice are placed on control- or Tempol-containing food 14 days (T-14) prior to receipt of encephalitogenic T cells (day 0=date of T cell transfer). Mice are blindly evaluated for onset of disease and clinical scores were assigned following examination as follows: 0=no clinical signs; 1=flaccid tail; 2=paresis of one or both hind legs; 3=paralysis of one or both hind legs; 4=quadriparesis or quadriparalysis; 5=moribund. The cumulative score represents the mean of the summation of single scores recorded in each mouse over days 0 (day of T cell transfer) to day 48 post disease induction. PLP-specific T cells are capable of causing severe paralytic disease in the brain and spinal cord of control fed mice, yet Tempol-fed mice are protected showing decreased incidence of disease as well as reduced severity.
SJL animals are induced for disease by the passive transfer of encephalitogenic T cells as described in Example 1. Animals are placed on either Tempol or control feed at either (i) 2 weeks prior to transfer, (ii) at the time of transfer, or (iii) at the onset of disease.

[3] = test system: leukocytic infiltration; assay: Leukocyte count by flow cytometry in actively induced EAE; assay type: in vivo, C57BL/6J mice
Excerpt: Animals are placed on either Tempol or control feed, and the number of leukocytes are counted via flow cytometry.

[4] = test system: MOG-induced active EAE; assay: MOG-induced active EAE, switched to Tempol feed after onset of clinical signs; assay type: in vivo, mice; conditions: feed switched once 60% of animals show at least grade 1; FIG. 4
Protocol: as §2

[5] = test system: actively induced chronic progressive EAE; assay: Actively induced chronic progressive EAE (MOG35-55 immunization), Tempol food from 14 days before immunization; assay type: in vivo, SJL mice
Protocol: as §1, §2
Mice are placed on control- or Tempol-containing food 14 days (T-14) prior to immunization with MOG peptide for EAE induction (day 0=date of immunization). Mice are blindly evaluated for onset of disease and clinical scores are assigned following examination as follows: 0=no clinical signs; 1=flaccid tail; 2=paresis of one or both hind legs; 3=paralysis of one or both hind legs; 4=quadriparesis or quadriparalysis; 5=moribund. The cumulative score represents the mean of the summation of single scores recorded in each mouse over days 0 (day of immunization) to day 30 post disease induction. In this study, mice that are fed Tempol generate myelin antigen-specific T cells which are unable to cause paralytic disease in immunized mice.

[6] = test system: inflammatory infiltrates; assay: Inflammatory infiltrate scoring of spinal cords at peak disease, passive EAE; assay type: in vivo, mice; conditions: 5 animals per group, 11 cord levels, scale 1-5; FIG. 8
Protocol: Animals induced passively for EAE with PLP-specific T cells are examined at peak disease for assessment of inflammatory infiltrates. The spinal cords from 5 animals per group (control-fed and Tempol-fed) are examined at 11 levels spanning the entire cord and assessed according to the following scale and an average inflammatory score is calculated per animal. Degree of inflammation: 1=1-2 mild infiltrates, little to no infiltration; 2=3+ infiltrates, +/− infiltration; 3=1-2 moderate infiltrates, 1-2 mild little/mild infiltrates; 4=3+ moderate infiltrates, or 1 severe/broad with or without mild infiltrates, extensive infiltration to parenchyma present; 5=2+ severe/broad parenchyma infiltrative, with or without additional mild/moderate associated infiltrates to parenchyma.

[7] = test system: edema associated with inflammation and tissue damage; assay: Spinal cord T2 relaxation times (edema) in passive EAE; assay type: in vivo, SJL mice
Protocol: SJL animals are induced for disease by the passive transfer of encephalitogenic T cells as described in Example 1. Animals are placed on either Tempol or control feed. In a spinal cord histogram, T2 relaxation times typically increase due to inflammation and edema during CNS autoimmunity/disease during EAE. […] In the control-fed animals, the spinal cord T2 relaxation times shifted to higher values due to edema and inflammation.
The average T2 relaxation times are measured for SJL passively-induced EAE animals on Tempol 2 weeks prior to T cell transfer. Five scans are collected per animal, which are pooled from: 2 control animals (10 total), 4 control-fed EAE animals (20 total), and 4 Tempol-fed EAE animals (20 total).

[8] = test system: neurofilament H; assay: Spinal cord neurofilament H in passive EAE animals; assay type: in vivo, SJL mice; set-up: cumulative disease score / peak disease score: scale not given here
Protocol: SJL animals are induced for disease by the passive transfer of encephalitogenic T cells as described in Example 1. Animals are placed on either Tempol or control feed. The spinal cords of the animals are analyzed 90 days post transfer.
Neurofilament staining is representative of the presence of axons. During autoimmune or demyelinating processes, the loss of neurofilament H has been associated with axonal loss.

[9] = clinical score 0-5, Tempol food from T-14, n = 10
[10] = individual animals, passive EAE

With `CC1(C)CC(O)CC(C)(C)N1[O]` [Tempol, 4-hydroxy-2,2,6,6-tetramethylpiperidine-1-oxyl] the “Generation of myelin-specific T cells by proliferative responses” value [1] was “does not reduce the generation of myelin-specific T cells”, the “Effect on incidence and severity of EAE” value ([2]; Table 2 and FIG. 2) was “reduces the incidence and severity” and the Incidence of disease ([2]; Tempol 10 mg/gram of food from 14 days prior to T cell transfer, n = 10) was “.70”. The “Average peak disease severity” value [2, 9] was 2.81, the “Average cumulative disease score” value ([2]; clinical score 0-5 summed over day 0 to day 48, Tempol food from T-14, n = 10) was 33.9 and the “Clinical sign at peak disease” value ([2]; control animals: complete hind limb paralysis with forelimb weakness) was “hind limb paresis”. The “Severity of clinical symptoms and cumulative disease score by time of administration” value ([2]; feed started 2 weeks prior to transfer, at transfer, or at disease onset, FIG. 3) was “reduces the severity of clinical symptoms and the cumulative disease score regardless of the time of administration”, the “Inflammatory infiltrates at peak disease” value ([3]; actively induced EAE, Table 4) was “limits the inflammatory infiltrates” and the “Microglial activation (upregulation of MHC class II expression)” value ([3]; compared to animals on control feed) was “reduces the degree of microglial activation”. For the same molecule, the “% B cell” value ([3]; flow cytometry, peak disease) was 1.3% and 2.8%, the “% CD3” value ([3]; flow cytometry, peak disease) was 11.1% and 11.2% and the “% mac/gran” value ([3]; flow cytometry, peak disease) was 10.1% and 20.2%. For the same molecule, the “% microglia” value ([3]; flow cytometry, peak disease) was 68.5% and 55.6%, the “% total CD45 hi” value ([3]; flow cytometry, peak disease) was 21.0% and 33.8% and the “CD4:CD8 ratio” value ([3]; flow cytometry, peak disease) was 1.7 and 1.5. For the same molecule, the “Cell #” value ([3]; flow cytometry, peak disease) was 1.0 ×10^6, the “Time after feed administration until disease severity drops off” value [4] was ≤ 2 days and the “Effect on incidence and severity of EAE” value ([5]; Table 1 and FIG. 1) was “reduces the incidence and severity”. The Incidence of disease ([5]; Tempol 10 mg/gram of food ad libitum from 14 days prior to MOG immunization, n = 10) was “.30”, the “Average peak disease severity” value [5, 9] was 0.83 and the “Average cumulative disease score” value ([5]; clinical score 0-5 summed over day 0 to day 30, Tempol food from T-14, n = 10) was 2.05. The “Inflammatory infiltrates at peak disease” value [6] was “limits the inflammatory infiltrates”, the “Edema and inflammation by average T2 relaxation times” value ([7]; Tempol 2 weeks prior to T cell transfer, to levels observed in healthy animals, FIG. 7) was “limits (e.g., reduces) the edema and inflammation” and the “T2 relaxation times, spinal cord histogram” value ([7]; versus control-fed EAE animals) was “lower T2 relaxation times”. For the same molecule, the cumulative disease score [8, 10] was 14 and 103.25 and 83.75 and 105.25 and 28.25 and 83 and 0.5 and 87.25 and 28.75, the peak disease score [8, 10] was 2.25 (2×) and 3.5 (4×) and 2.75 and 2.5 and 0 and the “average (relative amount of spinal cord neurofilament H)” value ([8]; individual animals, spinal cords analyzed 90 days post transfer) was 0.9652 and 0.4487 and 0.7 and 0.3589 and 0.8499 and 0.3415 and 0.9171 and 0.9553 and 1.104. For the same molecule, the “Preservation of neurofilament H” value ([8]; versus control feed, FIG. 5 and Table 3) was “greater preservation of neurofilament H”.
